Test results published in patent publication US10526336B2, “Fused heteroaryl derivatives as orexin receptor antagonists” (Merck Sharp & Dohme Corp., priority 2014, dated 2020).

These compounds were tested against human orexin-2 receptor (Homo sapiens (Human), UniProt O43614) (assay: FLIPR Ca2+ Flux Assay, orexin-2 receptor antagonism in CHO cells). Conditions: CHO cells expressing the human orexin-2 receptor; agonist 70 pM Ala-6,12 orexin-A; read-out: hOX2 FLIPR IC50.
Assay type: cell-based
Experimental: The utility of the compounds in accordance with the present invention as orexin receptor OX1R and/or OX2R antagonists may be readily determined without undue experimentation by methodology well known in the art, including the “FLIPR Ca^2+ Flux Assay” (Okumura et al., Biochem. Biophys. Res. Comm. 280:976-981, 2001). In a typical experiment the OX1 and OX2 receptor antagonistic activity of the compounds of the present invention was determined in accordance with the following experimental method. For intracellular calcium measurements, Chinese hamster ovary (CHO) cells expressing the rat orexin-1 receptor or the human orexin-2 receptor, are grown in Iscove's modified DMEM containing 2 mM L-glutamine, […], 1% hypoxanthine-thymidine supplement, 100 U/ml penicillin, 100 μg/ml streptomycin and 10% heat-inactivated fetal calf serum (FCS). The cells are seeded at 20,000 cells/well into Becton-Dickinson black 384-well clear bottom sterile plates coated with poly-D-lysine. All reagents are from GIBCO-Invitrogen Corp. The seeded plates are incubated overnight at 37° C. and 5% CO2. Ala-6,12 human orexin-A as the agonist is prepared as a 1 mM stock solution in 1% bovine serum albumin (BSA) and diluted in assay buffer (HBSS containing 20 mM HEPES, 0.1% BSA and 2.5 mM probenecid, pH7.4) for use in the assay at a final concentration of 70 pM. Test compounds are prepared as 10 mM stock solution in DMSO, then diluted in 384-well plates, first in DMSO, then assay buffer. On the day of the assay, cells are washed 3 times with 100 μl assay buffer and then incubated for 60 min (37° C., 5% CO2) in 60 μl assay buffer containing […] Fluo-4AM ester, 0.02% pluronic acid, and 1% BSA. The dye loading solution is then aspirated and cells are washed 3 times with 100 μl assay buffer. 30 μl of that same buffer is left in each well. Within the Fluorescent Imaging Plate Reader (FLIPR, Molecular Devices), test compounds are added to the plate in a volume of 25 μl, incubated for 5 min and finally 25 μl of agonist is added. Fluorescence is measured for each well at 1 second intervals for 5 minutes and the height of each fluorescence peak is compared to the height of the fluorescence peak induced by 70 pM Ala-6,12 orexin-A with buffer in place of antagonist. For each antagonist, IC50 value (the concentration of compound needed to inhibit 50% of the agonist response) is determined. Alternatively, compound potency can be assessed by a radioligand binding assay (described in Bergman et. al. Bioorg. Med. Chem. Lett. 2008, 18, 1425-1430) in which the inhibition constant (Ki) is determined in membranes prepared from CHO cells expressing either the OX1 or OX2 receptor. The intrinsic orexin receptor antagonist activity of a compound which may be used in the present invention may be determined by these assays.

human orexin-2 receptor, sequence (O43614 whole entry): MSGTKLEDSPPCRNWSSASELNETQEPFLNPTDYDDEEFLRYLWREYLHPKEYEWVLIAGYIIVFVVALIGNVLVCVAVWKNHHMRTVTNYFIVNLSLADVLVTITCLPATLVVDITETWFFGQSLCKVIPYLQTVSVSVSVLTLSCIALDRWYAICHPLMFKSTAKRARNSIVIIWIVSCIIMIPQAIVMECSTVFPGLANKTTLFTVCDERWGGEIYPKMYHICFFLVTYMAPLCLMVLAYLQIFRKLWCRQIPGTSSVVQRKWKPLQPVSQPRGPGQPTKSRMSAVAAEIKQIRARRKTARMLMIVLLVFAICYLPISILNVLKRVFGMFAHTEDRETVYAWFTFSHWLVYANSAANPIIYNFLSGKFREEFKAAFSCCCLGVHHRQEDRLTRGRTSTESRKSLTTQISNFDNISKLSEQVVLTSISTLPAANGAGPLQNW

In order of rising IC50:
1. C[C@@H]1CC[C@@H](Oc2nccn3c(Br)cnc23)CN1C(=O)c1ccccc1-n1nccn1 [Example 33, (2-(2H-1,2,3-triazol-2-yl)phenyl)((2R,5R)-5-((3-bromoimidazo[1,2-a]pyrazin-8-yl)oxy)-2-methylpiperidin-1-yl)methanone]  0.0089 µM
2. C[C@@H]1CC[C@@H](Oc2nccn3c(Cl)cnc23)CN1C(=O)c1ccccc1-n1nccn1 [Example 26, (2-(2H-1,2,3-triazol-2-yl)phenyl)((2R,5R)-5-((3-chloroimidazo[1,2-a]pyrazin-8-yl)oxy)-2-methylpiperidin-1-yl)methanone]  0.0121 µM
3. C[C@@H]1CC[C@@H](Oc2nccn3c(C(F)(F)F)cnc23)CN1C(=O)c1ccccc1-n1nccn1 [Example 57]  0.0131 µM
4. C[C@@H]1CC[C@@H](Oc2nccn3c(Cl)cnc23)CN1C(=O)c1ccsc1-n1nccn1 [Example 29, (2-(2H-1,2,3-triazol-2-yl)thiophen-3-yl)((2R,5R)-5-((3-chloroimidazo[1,2-α]pyrazin-8-yl)oxy)-2-methylpiperidin-1-yl)methanone]  0.0143 µM
5. C[C@@H]1CC[C@@H](Oc2nccn3c(C(F)F)cnc23)CN1C(=O)c1ccc(F)cc1-n1nccn1 [Example 43, ((2R,5R)-5-((3-(difluoromethyl)imidazo[1,2-α]pyrazin-8-yl)oxy)-2-methylpiperidin-1-yl)(4-fluoro-2-(2H-1,2,3-triazol-2-yl)phenyl)methanone]  0.0157 µM
6. C[C@@H]1CC[C@@H](Oc2nccn3c(C(F)F)cnc23)CN1C(=O)c1cccnc1-n1cccn1 [Example 52, (2-(1H-pyrazol-1-yl)pyridin-3-yl)((2R,5R)-5-((3-(difluoromethyl)imidazo[1,2-α]pyrazin-8-yl)oxy)-2-methylpiperidin-1-yl)methanone]  0.0158 µM
7. C[C@@H]1CC[C@@H](Oc2ccnc3ocnc23)CN1C(=O)c1ccccc1-n1nccn1 [Example 91, (2-(2H-1,2,3-triazol-2-yl)phenyl)((2R,5R)-2-methyl-5-(oxazolo[5,4-b]pyridin-7-yloxy)piperidin-1-yl)methanone]  0.0163 µM
8. C[C@@H]1CC[C@@H](Oc2nccn3c(C(F)(F)F)cnc23)CN1C(=O)c1ccccc1-n1ncnn1 [Example 60, (2-(2H-tetrazol-2-yl)phenyl)((2R,5R)-2-methyl-5-((3-(trifluoromethyl)imidazo [1,2-α]pyrazin-8-yl)oxy)piperidin-1-yl)methanone]  0.019 µM
9. C[C@@H]1CC[C@@H](Oc2nccn3c(C(F)(F)F)cnc23)CN1C(=O)c1ccsc1-n1nccn1 [Example 58, (2-(2H-1,2,3-triazol-2-yl)thiophen-3-yl)((2R,5R)-2-methyl-5-((3-(trifluoromethyl)imidazo[1,2-a]pyrazin-8-yl)oxy)piperidin-1-yl)methanone]  0.0204 µM
10. C[C@@H]1CC[C@@H](Oc2nccn3nccc23)CN1C(=O)c1ccsc1-c1ncccn1 [Example 75, ((2R,5R)-2-methyl-5-(pyrazolo[1,5-α]pyrazin-4-yloxy)piperidin-1-yl) (2-(pyrimidin-2-yl)thiophen-3-yl) methanone]  0.0206 µM
11. C[C@@H]1CC[C@@H](Oc2nccn3c(C(F)(F)F)cnc23)CN1C(=O)c1cccnc1-n1cccn1 [Example 65, (2-(1H-pyrazol-1-yl)pyridin-3-yl) ((2R,5R)-2-methyl-5-((3-(trifluoromethyl)imidazo [1,2-α]pyrazin-8-yl)oxy)piperidin-1-yl)methanone]  0.024 µM
12. C[C@@H]1CC[C@@H](Oc2nccn3c(C(F)F)cnc23)CN1C(=O)c1ccccc1-c1ncccn1 [Example 54, ((2R,5R)-5-((3-(difluoromethyl)imidazo[1,2-a]pyrazin-8-yl)oxy)-2-methylpiperidin-1-yl)(2-(pyrimidin-2-yl)phenyl)methanone]  0.0241 µM
13. C[C@@H]1CC[C@@H](Oc2nccn3c(C(F)F)cnc23)CN1C(=O)c1cccnc1OCC(F)(F)F [Example 50, ((2R,5R)-5-((3-(difluoromethyl)imidazo[1,2-α]pyrazin-8-yl)oxy)-2-methylpiperidin-1-yl)(2-(2,2,2-trifluoroethoxy)pyridin-3-yl)methanone]  0.0265 µM
14. C[C@@H]1CC[C@@H](Oc2nccn3c(C(F)F)cnc23)CN1C(=O)c1cccnc1OCC(F)F [Example 51, (2-(2,2-difluoroethoxy)pyridin-3-yl)((2R,5R)-5-((3-(difluoromethyl)imidazo[1,2-α]pyrazin-8-yl)oxy)-2-methylpiperidin-1-yl) methanone]  0.0318 µM
15. CCCc1ccccc1C(=O)N1C[C@H](Oc2nccn3nccc23)CC[C@H]1C [Example 82, ((2R,5R)-2-methyl-5-(pyrazolo [1,5-α]pyrazin-4-yloxy)piperidin-1-yl) (2-propylphenyl)methanone]  0.0339 µM
16. C[C@@H]1CC[C@@H](Oc2nccn3c(C(F)F)cnc23)CN1C(=O)c1cscc1-n1nccn1 [Example 41, (4-(2H-1,2,3-triazol-2-yl)thiophen-3-yl)((2R,5R)-5-((3-(difluoromethyl)imidazo[1,2-α]pyrazin-8-yl)oxy)-2-methylpiperidin-1-yl)methanone]  0.0457 µM
17. C[C@@H]1CC[C@@H](Oc2nccn3cc(CO)nc23)CN1C(=O)c1ccccc1-n1nccn1 [Example 25, (2-(2H-1,2,3-triazol-2-yl)phenyl)((2R,5R)-5-((2-(hydroxymethyl)imidazo[1,2-a]pyrazin-8-yl)oxy)-2-methylpiperidin-1-yl)methanone]  0.0493 µM
18. CCOc1ccccc1C(=O)N1C[C@H](Oc2nccn3nccc23)CC[C@H]1C [Example 81, (2-ethoxyphenyl)((2R,5R)-2-methyl-5-(pyrazolo[1,5-α]pyrazin-4-yloxy)piperidin-1-yl)methanone]  0.0519 µM
19. C[C@@H]1CC[C@@H](Oc2nccn3c(C(F)F)cnc23)CN1C(=O)c1ccsc1-c1ncccn1 [Example 56, ((2R,5R)-5-((3 (difluoromethyl)imidazo [1,2-α]pyrazin-8-yl)oxy)-2-methylpiperidin-1-yl)(2-(pyrimidin-2-yl)thiophen-3-yl)methanone]  0.0537 µM
20. Cc1cn2ccnc(O[C@@H]3CC[C@@H](C)N(C(=O)c4cccnc4-n4cccn4)C3)c2n1 [Example 18, (2-(1H-pyrazol-1-yl)pyridin-3-yl) ((2R,5R)-2-methyl-5-((2-methylimidazo[1,2-α]pyrazin-8-yl)oxy)piperidin-1-yl)methanone]  0.0587 µM
21. C[C@@H]1CC[C@@H](Oc2nccn3nccc23)CN1C(=O)c1nccnc1-c1ccccn1 [Example 78, ((2R,5R)-2-methyl-5-(pyrazolo[1,5-α]pyrazin-4-yloxy)piperidin-1-yl)(3-(pyridin-2-yl)pyrazin-2-yl)methanone]  0.0591 µM
22. C[C@@H]1CC[C@@H](Oc2nccn3c(C(F)F)cnc23)CN1C(=O)c1nccnc1-n1cccn1 [Example 46, (3-(1H-pyrazol-1-yl)pyrazin-2-yl)((2R,5R)-5-((3-(difluoromethyl)imidazo[1,2-α]pyrazin-8-yl)oxy)-2-methylpiperidin-1-yl)methanone]  0.0619 µM
23. C[C@@H]1CC[C@@H](Oc2nccn3c(C(F)F)cnc23)CN1C(=O)c1nccnc1-c1ccccn1 [Example 47, ((2R,5R)-5-((3-(difluoromethyl)imidazo[1,2-α]pyrazin-8-yl)oxy)-2-methylpiperidin-1-yl)(3-(pyridin-2-yl)pyrazin-2-yl)methanone]  0.0649 µM
24. C[C@@H]1CC[C@@H](Oc2nccn3cc(C#N)nc23)CN1C(=O)c1ccccc1-n1nccn1 [Example 24, 8-(((3R,6R)-1-(2-(2H-1,2,3-triazol-2-yl)benzoyl)-6-methylpiperidin-3-yl)oxy)imidazo[1,2-a]pyrazine-2-carbonitrile]  0.0882 µM
25. C[C@@H]1CC[C@@H](Nc2nccn3cc(C(F)(F)F)nc23)CN1C(=O)c1ccsc1-n1nccn1 [Example 23, (2-(2H-1,2,3-triazol-2-yl)thiophen-3-yl) ((2R,5R)-2-methyl-5-((2-(trifluoromethyl)imidazo[1,2-α]pyrazin-8-yl)amino)piperidin-1-yl)methanone]  0.0993 µM
26. CC(O)c1cnc2c(O[C@@H]3CC[C@@H](C)N(C(=O)c4ccccc4-n4nccn4)C3)nccn12 (stereo partly drawn) [Example 68, (2-(2H-1,2,3-triazol-2-yl)phenyl)((2R,5R)-5-((3-(1-hydroxyethyl)imidazo[1,2-a]pyrazin-8-yl)oxy)-2-methylpiperidin-1-yl)methanone]  0.115 µM
